Test results from publication PMC4871539 (PLoS ONE, 2016).

How the values were obtained:
E. coli 35218R [1] = experiment: microbe, parasite or virus in culture; conditions: Escherichia coli
[2] = mouse, in vivo
[3] = mouse, in vivo; cited from earlier work
E. coli ATCC 35218 = format: cell-based, Escherichia coli; conditions: 30-μg cefoxitin disc
E. coli 35218R [4] = format: cell-based, Escherichia coli; conditions: 30-μg cefoxitin disc

Compound	MIC (E. coli 35218R [1]) [µg/mL]	also measured
CO/N=C(\C(=O)N[C@@H]1C(=O)N2C(C(=O)O)=C(CSc3nc(=O)c(=O)[nH]n3C)CS[C@H]12)c1csc(N)n1 [Ceftriaxone]	≤ 1	
piperacillin-tazobactam [Procaps]		bioequivalence test versus innovator [2]: passed
C[C@@H](O)[C@H]1C(=O)N2C(C(=O)O)=C(S[C@@H]3CN[C@H](C(=O)Nc4cccc(C(=O)O)c4)C3)[C@H](C)[C@H]12 [Ertapenem]	≤ 0.5	
CN[C@H](CC(C)C)C(=O)N[C@H]1C(=O)N[C@@H](CC(N)=O)C(=O)N[C@H]2C(=O)N[C@H]3C(=O)N[C@H](C(=O)N[C@H](C(=O)O)c4cc(O)cc(O)c4-c4cc3ccc4O)[C@H](O)c3ccc(c(Cl)c3)Oc3cc2cc(c3O[C@@H]2O[C@H](CO)[C@@H](O)[C@H](O)[C@H]2O[C@H]2C[C@](C)(N)[C@H](O)[C@H](C)O2)Oc2ccc(cc2Cl)[C@H]1O [vancomycin]		elimination half-life [3]: ~30 min
CC(C)(O/N=C(\C(=O)N[C@@H]1C(=O)N2C(C(=O)[O-])=C(C[n+]3ccccc3)CS[C@H]12)c1csc(N)n1)C(=O)O [Ceftazidime]	≤ 1	
CO/N=C(\C(=O)N[C@@H]1C(=O)N2C(C(=O)[O-])=C(C[N+]3(C)CCCC3)CS[C@H]12)c1csc(N)n1 [Cefepime]	≤ 1	
C[C@H]1[C@H](NC(=O)/C(=N\OC(C)(C)C(=O)O)c2csc(N)n2)C(=O)N1S(=O)(=O)O [Aztreonam]	≤ 1	
CO[C@@]1(NC(=O)Cc2cccs2)C(=O)N2C(C(=O)O)=C(COC(N)=O)CS[C@@H]21 [Cefoxitin]	≤ 4	inhibition zone (mean ± SD) (E. coli ATCC 35218): 27.2 ± 0.1 mm; inhibition zone (mean ± SD) (E. coli 35218R [4]): 27.9 ± 0.1 mm
C[C@@H](O)[C@H]1C(=O)N2C(C(=O)O)=C(S[C@@H]3CN[C@H](C(=O)N(C)C)C3)[C@H](C)[C@H]12 [Meropenem]	≤ 0.25	
piperacillin-tazobactam [Farmalogica]		bioequivalence test versus innovator [2]: passed
C[C@@H](O)[C@H]1C(=O)N2C(C(=O)O)=C(SCCN=CN)C[C@H]12 [Imipenem]	≤ 1	
